Assay results: patent publication US5441982A, “Therapeutics for management of cocaine induced toxicity” (priority 1993, dated 1995)
Several values for one entry are separate records, joined by “and”; a condition that tells them apart may be missing. Identical values can stand only once.

Key:
[1] = target: NMDA receptor; test: Competition binding, [^3 H]CGP 39653, mouse cortical membranes; details: for Effect on binding of [^3 H]CGP 39653: 0.01 to 100 uM
Protocol: (§1) Affinity of selected reference drugs for the NMDA receptor
(§2) labeled with [^3 H]CGP 39653 and the PCP receptor
(§3) labeled with [^3 H]MK-801, relatively to the effect of
(§4) NOS inhibitors, in mouse cortical membranes.
(§5) Competition binding assays were carried out using 14 nM [^3 H]CGP 39653 and 2 nM [^3 H]MK-801. L-NAME and NO-Arg at a concentration range of 0.01 to 100 uM, each, had no effect (N.E.) on the binding of the two tritium labeled ligands. Data represents the mean ±S.D. of three experiments.

[2] = tested on: cocaine induced seizures and lethality in Swiss-Webster mice; test: Effect of repeated cocaine administration on convulsive response and survival of mice pretreated with saline or NOS inhibitor; type: in vivo; details: for Protection against development of convulsions / Protection against lethal effects of cocaine: 60 min before cocaine 45 mg/kg/day, 7 days; for Convulsions (number of animals that seized) / Convulsions (percentage) / Survival (number of animals that survived) / Survival (percentage): saline or L-NAME (100 mg/kg) 60 min before cocaine 45 mg/kg i.p. daily
From the text: In the search for safer agents that may be useful in treating cocaine induced toxicity, Applicant has discovered that drugs that block the enzyme nitric oxide (NO) synthase completely abolish cocaine induced seizures and lethality in mice (see TABLE 1). NO synthase inhibitors such as N-nitro-L-arginine methyl ester (L-NAME) and N-nitro-L-arginine (NO-Arg) are known drugs used clinically for the treatment of septic shock. […] Thus, it is though that NO, a putative neurotransmitter in the brain, is involved in DA-receptor mediated neurotoxicity. Applicant's recent studies are the first to document that NOS inhibitors have protective effects against cocaine induced toxicity. FIG. 1 and FIG. 2. Briefly, Swiss-Webster mice were pretreated with either saline, L-NAME (100 mg/kg/day) or NO-Arg (25 mg/kg/day) 60 min before the administration of cocaine (45 mg/kg/day) for 7 days. The progressive increase in the adverse and toxic effects of repetitive cocaine was manifested by an increase in the convulsive and lethal responses to cocaine. Following the 7th day of saline/cocaine treatment only 60% of the animals survived, and 100% of the animals seized.
Effect of repeated cocaine administration on convulsive
response and survival of Swiss-Webster mice pretreated with
either saline or L-NAME. Mice received a Single i.p.
injection of cocaine (45 mg/kg) each day 60 min after
pretreatment with either saline or L-NAME (100 mg/kg). Data
is expressed as the total number of animals that seized
and survived following the drugs treatment in three separate
experiments. Numbers in parentheses indicate percentage.

[3] = target: PCP receptor; test: Competition binding, [^3 H]MK-801, mouse cortical membranes; details: for [^3 H]MK-801 Ki / Ki: 2 nM [^3 H]MK-801, mouse cortical membranes, mean ± S.D. of three experiments, N.E. = no effect at 0.01 to 100 uM; for Effect on binding of [^3 H]MK-801: 0.01 to 100 uM
Protocol: as §1, §2, §3, §4, §5

[4] = 14 nM [^3 H]CGP 39653, mouse cortical membranes, mean ± S.D. of three experiments, N.E. = no effect at 0.01 to 100 uM

Structure (SMILES)	[^3 H]CGP 39653 Ki [1, 4]	Effect on binding of [^3 H]CGP 39653 [1]	Convulsions (number of animals that seized) ([2]; day 1)	Convulsions (percentage) ([2]; day 1) [%]	Survival (number of animals that survived) ([2]; day 1)	Survival (percentage) ([2]; day 1) [%]	Convulsions (number of animals that seized) ([2]; day 2)	Convulsions (percentage) ([2]; day 2) [%]	Survival (number of animals that survived) ([2]; day 2)	Survival (percentage) ([2]; day 2) [%]	Convulsions (number of animals that seized) ([2]; day 3)	Convulsions (percentage) ([2]; day 3) [%]	Survival (number of animals that survived) ([2]; day 3)	Survival (percentage) ([2]; day 3) [%]	Convulsions (number of animals that seized) ([2]; day 4)	Convulsions (percentage) ([2]; day 4) [%]	Survival (number of animals that survived) ([2]; day 4)	Survival (percentage) ([2]; day 4) [%]	Convulsions (number of animals that seized) ([2]; day 5)	Convulsions (percentage) ([2]; day 5) [%]	also measured
NC(CCCP(=O)(O)O)C(=O)O (stereo not drawn) [AP-5]	–	–	–	–	–	–	–	–	–	–	–	–	–	–	–	–	–	–	–	–	Ki [1, 4]: 2230 ± 180 nM
COC(=O)[C@@H](N)CCCN=C(N)N[N+](=O)[O-] [L-NAME, N-nitro-L-arginine methyl ester]	N.E.	no effect	0/30	0	30/30	100	1/30	3	30/30	100	2/30	6	30/30	100	0/30	0	30/30	100	1/30	3	Protection against development of convulsions ([2]; L-NAME 100 mg/kg/day): completely protected; Protection against lethal effects of cocaine ([2]; L-NAME 100 mg/kg/day): completely protected; Survival (number of animals that survived) ([2]; day 5): 30/30; Survival (percentage) ([2]; day 5): 100%; Convulsions (number of animals that seized) ([2]; day 6): 1/30; Convulsions (percentage) ([2]; day 6): 3%; Survival (number of animals that survived) ([2]; day 6): 30/30; Survival (percentage) ([2]; day 6): 100%; Convulsions (number of animals that seized) ([2]; day 7): 0/30; Convulsions (percentage) ([2]; day 7): 0%; Survival (number of animals that survived) ([2]; day 7): 30/30; Survival (percentage) ([2]; day 7): 100%; [^3 H]MK-801 Ki [3]: N.E.; Effect on binding of [^3 H]MK-801 [3]: no effect
C[C@]12N[C@H](Cc3ccccc31)c1ccccc12 [MK-801]	–	–	–	–	–	–	–	–	–	–	–	–	–	–	–	–	–	–	–	–	Ki [3]: 3 ± 0.2 nM
NC(=NCCC[C@H](N)C(=O)O)N[N+](=O)[O-] [NO-Arg, N-nitro-L-arginine]	N.E.	no effect	–	–	–	–	–	–	–	–	–	–	–	–	–	–	–	–	–	–	Protection against development of convulsions ([2]; NO-Arg 25 mg/kg/day): completely protected; Protection against lethal effects of cocaine ([2]; NO-Arg 25 mg/kg/day): completely protected; [^3 H]MK-801 Ki [3]: N.E.; Effect on binding of [^3 H]MK-801 [3]: no effect
c1ccc(C2(N3CCCCC3)CCCCC2)cc1 [PCP]	–	–	–	–	–	–	–	–	–	–	–	–	–	–	–	–	–	–	–	–	Ki [3]: 55 ± 4 nM
COC(=O)[C@H]1[C@@H](OC(=O)c2ccccc2)C[C@@H]2CC[C@H]1N2C [cocaine]	–	–	4/36	11	36/36	100	14/36	38	36/36	100	20/36	55	36/36	100	22/34	65	34/36	94	24/33	72	Convulsions had occurred (in words) ([2]; by the seventh day, uniform daily doses of cocaine): in all animals; Survival (number of animals that survived) ([2]; day 5): 33/36; Survival (percentage) ([2]; day 5): 91%; Convulsions (number of animals that seized) ([2]; day 6): 26/27; Convulsions (percentage) ([2]; day 6): 96%; Survival (number of animals that survived) ([2]; day 6): 27/36; Survival (percentage) ([2]; day 6): 75%; Convulsions (number of animals that seized) ([2]; day 7): 22/22; Convulsions (percentage) ([2]; day 7): 100%; Survival (number of animals that survived) ([2]; day 7): 22/36; Survival (percentage) ([2]; day 7): 60% and 61%
